Experimental findings from patent publication US8642801B2 (BHI Limited Partnership, priority 2003, dated 2014) are described below.

This test has as its system Aβ40 and Aβ42 peptides in plasma and brain of TgCRND8 mice. As to the kind of experiment: Short term treatment in adult transgenic CRND8 mice overexpressing βAPP: Aβ levels in plasma and brain by ELISA. The following applies: after 14 and 28 days of treatment, TgCRND8 mice. The format is in vivo, Mouse. The essentials:
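TgCRND8 mice (B6C3F1 backcross, ~11 weeks at treatment start) given short-term treatment; Aβ40 and Aβ42 in plasma and soluble/insoluble brain fractions measured by fluorometric sandwich ELISA (ex 460/em 560 nm). Levels normalized to vehicle (water or methylcellulose) groups and scored as +/− symbols by effect strength.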
For orientation: In an ELISA, binding on a coated surface is turned into a signal by an enzyme label.

Turning to `CC(C)(C)NCCCS(=O)(=O)O` [BX, 3-(t-butyl)amino-1-propanesulfonic acid], the “levels of Aβ peptides in the plasma” value is given as “significant increase”.
